Test systems include K562; U-251; KM12; HCC 2998; Hs-578T; UACC-257; RPMI-8226; MDA-MB-231; DU-145; A498; T47D; NCI-H226; HL-60; MOLT-4; SF-539; SF-295; SNB-19; ACHN; RXF 393; OVCAR-5.
Common to all, as to assay: inhibition of tumour cell growth, NCI panel, 48 h

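Results reflect a 48-hour exposure of cells in 96-well plates to compound at five concentrations. At the GI50, growth is halved.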 The source made the active and inactive calls. Cut-off read from the data, not from the text of the source: active = GI50 up to about 1.1 µM and inactive = higher.

Consider `COc1ccc(/C(C)=N/NC(=O)c2ccncc2)c(OC)c1`, for which the GI50 with K562, in the assay with U-251, in the assay with KM12, in the assay on HCC 2998, with Hs-578T and in the assay on UACC-257 was > 10 µM (inactive) in each case. For the same molecule, the GI50 in the assay on RPMI-8226, with MDA-MB-231, in the assay with DU-145, in the assay on A498, in the assay with T47D and in the assay on NCI-H226 was > 10 µM (inactive) throughout. The GI50 in the assay on HL-60, in the assay on MOLT-4 and in the assay with SF-539 was > 10 µM (inactive) each time.
For the molecule `COc1cc(CC2C(=O)OCC2Cc2ccc(OC)c(OC)c2)ccc1O` (centres undefined), the GI50 is 8.85 µM (inactive) in the assay with SF-295; > 100 µM (inactive) in the assay on SNB-19; > 88.9 µM (inactive) in the assay on ACHN; > 100 µM (inactive) with U-251; > 100 µM (inactive) in the assay with KM12; > 100 µM (inactive) with Hs-578T. The GI50 was > 50.6 µM (inactive) in the assay with UACC-257; > 100 µM (inactive) with RPMI-8226; 74.3 µM (inactive) in the assay on MDA-MB-231; > 100 µM (inactive) with DU-145; > 100 µM (inactive) with A498; 28.6 µM (inactive) in the assay with T47D. For the same molecule, the GI50 in the assay on RXF 393 is > 100 µM (inactive); with NCI-H226, > 100 µM (inactive); with HL-60 it was > 100 µM (inactive); in the assay with OVCAR-5, > 100 µM (inactive); in the assay with MOLT-4, 4.76 µM (inactive); with SF-539, > 100 µM (inactive).
Consider `COCc1nc2c(OC)c(-c3nc4ccc(N5CCN(C)CC5)cc4[nH]3)cc(OC)c2[nH]1`, for which the GI50 was 38.8 µM (inactive) with K562; 21.6 µM (inactive) in the assay on SF-295; 48.8 µM (inactive) with SNB-19; 65.9 µM (inactive) in the assay with ACHN; 42 µM (inactive) in the assay on U-251; 28.1 µM (inactive) in the assay on KM12. The GI50 with Hs-578T was 69.8 µM (inactive); in the assay with UACC-257, 17.7 µM (inactive); with RPMI-8226, 32.1 µM (inactive); with MDA-MB-231, 30.2 µM (inactive); in the assay on DU-145 it was 31.3 µM (inactive); in the assay with A498, > 100 µM (inactive). Also, the GI50 was 65.2 µM (inactive) in the assay on T47D; 14.3 µM (inactive) with RXF 393; > 100 µM (inactive) with NCI-H226; 33.6 µM (inactive) in the assay with HL-60; > 100 µM (inactive) with OVCAR-5; 41.1 µM (inactive) in the assay on MOLT-4. For the same molecule, in the assay on SF-539, the GI50 was 20 µM (inactive).
Take `CCOC(=O)c1[nH]c(Br)c(-c2ccc(OC)c(OC)c2)c1Br`: the GI50 with K562 is 0.0121 µM (active); in the assay on SF-295 it was 0.00975 µM (active); in the assay on SNB-19 it was 0.181 µM (active); in the assay on ACHN, 0.0242 µM (active); in the assay on U-251 it was 0.0311 µM (active); in the assay on KM12, 0.0303 µM (active). The GI50 in the assay with HCC 2998 is 0.199 µM (active); in the assay with Hs-578T it was 0.0369 µM (active); in the assay on UACC-257, 0.00386 µM (active); with RPMI-8226 it was 0.01 µM (active); in the assay on MDA-MB-231 it was 0.321 µM (active); with DU-145, 0.0476 µM (active). Also, the GI50 in the assay with A498 is 0.0187 µM (active); in the assay on T47D it was 21 µM (inactive); with RXF 393 it was 0.00906 µM (active); in the assay with NCI-H226, 0.0381 µM (active); in the assay with HL-60, 0.0679 µM (active); in the assay on OVCAR-5, 5.27 µM (inactive). The GI50 in the assay on MOLT-4 is 0.0262 µM (active).
As for `N#Cc1c(C#N)c(-c2ccccc2)n(-c2ccccc2)c1N`, the GI50 in the assay with K562 is 19.7 µM (inactive); with SF-295, 15.3 µM (inactive); in the assay with SNB-19 it was 30.4 µM (inactive); with ACHN, 50.7 µM (inactive); in the assay on U-251 it was 33.4 µM (inactive); with KM12 it was > 100 µM (inactive). The GI50 is 21 µM (inactive) with Hs-578T; > 100 µM (inactive) in the assay on UACC-257; 5.87 µM (inactive) with RPMI-8226; > 100 µM (inactive) with MDA-MB-231; 85.7 µM (inactive) with DU-145; > 100 µM (inactive) in the assay with A498. Also, the GI50 in the assay on T47D was 6.52 µM (inactive); in the assay on RXF 393, 41.6 µM (inactive); in the assay with NCI-H226, 72.4 µM (inactive); in the assay with HL-60, > 100 µM (inactive); in the assay with OVCAR-5 it was > 100 µM (inactive); in the assay with MOLT-4, 60.3 µM (inactive). The GI50 in the assay on SF-539 is 20.2 µM (inactive).
As to `Cc1cccc(NS(=O)(=O)c2ccc3c(c2)OCCOCCOCCOCCO3)c1`, the GI50 in the assay on K562, with SF-295, in the assay with SNB-19, in the assay with ACHN, in the assay with KM12 and in the assay on HCC 2998 was > 100 µM (inactive) throughout. Besides, the GI50 with Hs-578T, in the assay with UACC-257, in the assay on RPMI-8226, in the assay on MDA-MB-231, in the assay on DU-145 and in the assay with A498 was > 100 µM (inactive) each time. Besides, the GI50 is 43.5 µM (inactive) in the assay on T47D; > 100 µM (inactive) in the assay on NCI-H226; > 100 µM (inactive) with HL-60; 63 µM (inactive) in the assay on MOLT-4; > 100 µM (inactive) in the assay on SF-539.
`O=C1C=CC2(C=C1)O[C@H](COCc1ccccc1)[C@@H](COCc1ccccc1)O2`: the GI50 in the assay with K562 was 2.25 µM (inactive); with SF-295, 16 µM (inactive); in the assay with SNB-19 it was 2.92 µM (inactive); with ACHN, 1.58 µM (inactive); in the assay on U-251, 1.92 µM (inactive); with KM12, 3.49 µM (inactive). Moreover, the GI50 was 1.75 µM (inactive) in the assay with Hs-578T; 1.62 µM (inactive) with UACC-257; 0.42 µM (active) in the assay on RPMI-8226; 3.65 µM (inactive) with MDA-MB-231; 2.7 µM (inactive) in the assay with DU-145; 19.9 µM (inactive) in the assay with A498. In addition, the GI50 in the assay with T47D was 2.04 µM (inactive); in the assay on RXF 393, 0.2 µM (active); in the assay on NCI-H226, 1.82 µM (inactive); with HL-60, 2.59 µM (inactive); in the assay on OVCAR-5 it was 1.55 µM (inactive); with MOLT-4 it was 0.371 µM (active). Also, in the assay with SF-539, the GI50 was 1.97 µM (inactive).
Regarding `O=C1C=Cc2c(Br)sc(Br)c21`, the GI50 in the assay with K562 is 23 µM (inactive); with SF-295, > 100 µM (inactive); with SNB-19 it was > 100 µM (inactive); in the assay with ACHN, 24.7 µM (inactive); in the assay with U-251, 18.5 µM (inactive); with KM12, 37.4 µM (inactive). The GI50 in the assay with HCC 2998 was 15.2 µM (inactive); in the assay on Hs-578T, 29.2 µM (inactive); with UACC-257, 26.6 µM (inactive); in the assay on RPMI-8226, 10.3 µM (inactive); with MDA-MB-231 it was 21.7 µM (inactive); in the assay on DU-145, 43.8 µM (inactive). In addition, the GI50 with A498 is > 100 µM (inactive); in the assay on T47D, 34 µM (inactive); in the assay with RXF 393, 24.3 µM (inactive); in the assay on HL-60, 23.1 µM (inactive); in the assay on OVCAR-5, 35.6 µM (inactive); with MOLT-4, 13.5 µM (inactive). Besides, the GI50 in the assay on SF-539 was 59.3 µM (inactive).
Turning to `Nc1cnc(Nc2cccc3ccccc23)o1`, the GI50 with K562, with SF-295, with SNB-19, in the assay on ACHN, with U-251 and with KM12 was > 10 µM (inactive) throughout. In addition, the GI50 in the assay with HCC 2998, with Hs-578T, in the assay on UACC-257, in the assay on MDA-MB-231, in the assay on DU-145 and in the assay with A498 was > 10 µM (inactive) each time. Further, the GI50 with T47D, in the assay on RXF 393, in the assay with NCI-H226, in the assay on HL-60 and with SF-539 was > 10 µM (inactive) throughout.
For `CN1CCN(Cn2nc(-c3ccccc3)n(/N=C/c3ccc(-c4ccc(Cl)cc4Cl)o3)c2=S)CC1`, the GI50 in the assay on K562 was 2.39 µM (inactive); with SF-295, 11.4 µM (inactive); in the assay with U-251, 5.25 µM (inactive); in the assay on KM12 it was 9.73 µM (inactive); in the assay on HCC 2998, 12.8 µM (inactive); in the assay with Hs-578T, 7.91 µM (inactive). Besides, the GI50 with UACC-257 is 18 µM (inactive); in the assay on RPMI-8226, 8.61 µM (inactive); with MDA-MB-231, 13.9 µM (inactive); in the assay with DU-145, 8.91 µM (inactive); in the assay with A498 it was 26 µM (inactive); with T47D, 15.5 µM (inactive). The GI50 is 4.22 µM (inactive) in the assay on RXF 393; 20 µM (inactive) with NCI-H226; 4.58 µM (inactive) in the assay on HL-60; 15.2 µM (inactive) in the assay on OVCAR-5; 0.0713 µM (active) with MOLT-4; 13.5 µM (inactive) in the assay on SF-539.
`COc1ccc2nc3c([N+](=O)[O-])ccc4c3c(c2c1)N=CN4CCN(C)C`: the GI50 in the assay on K562 was 0.726 µM (active); in the assay with SF-295, 5.57 µM (inactive); with SNB-19 it was 6.85 µM (inactive); with ACHN, 3.66 µM (inactive); in the assay with U-251 it was 5.07 µM (inactive); in the assay on KM12, 3.86 µM (inactive). Besides, the GI50 in the assay with HCC 2998 was 3.83 µM (inactive); with Hs-578T, 6.73 µM (inactive); with UACC-257 it was 3.96 µM (inactive); in the assay with RPMI-8226, 2.24 µM (inactive); in the assay on MDA-MB-231 it was 1.84 µM (inactive); with DU-145, 4.09 µM (inactive). The GI50 with A498 was 4.16 µM (inactive); in the assay on T47D, 5.14 µM (inactive); in the assay with NCI-H226, 4.34 µM (inactive); in the assay with HL-60, 0.266 µM (active); in the assay with OVCAR-5, 6.7 µM (inactive); in the assay with MOLT-4, 2.04 µM (inactive). Moreover, the GI50 with SF-539 was 3.28 µM (inactive).

Source of the values: ChEMBL document CHEMBL1201862, “PubChem BioAssay data set” (2004).
